In patent US8133888B2, “Hydrazide containing taxane conjugates” (Sun Pharma Advanced Research Company Ltd., priority 2008, dated 2012):

Key:
[1] = Solubility of the taxane conjugates in water with added acid (visual clarity); type: physicochemical; conditions: 2 mg dispersed in 0.5 ml water, sonicated, 20 μl of 2.5M HCl added, sonicated about 2 min
Procedure: About 2 mg of the taxane conjugate of formula I was dispersed in 0.5 ml water (sterile) and sonicated for about 2 min. Small aliquots of a pharmaceutically accepted acid was added, sonicated for 2-3 min after each addition and observed for visual clarity.
For example, 2 mg of compound I.03 was dispersed in 0.5 ml water and sonicated for about 2 min.

[2] = Conversion of compound of formula I to the active taxane compound in human plasma (LC-MS/MS); type: in vitro ADME; conditions: 37° C.; for Peak Area of test compound / % Unconverted Compound I.04: human plasma; for Peak Area of docetaxel formed: docetaxel released from compound I.04 in human plasma
Procedure: The conversion of the test compound I.04 of the present invention to the active/parent taxane compound was determined in the human plasma sample. The test compound of 2000 ng per nil concentration was added to human plasma at ambient temperature and was kept in an incubator maintained at 37° C. Aliquots of this plasma sample were taken at definite time intervals and subjected to LC-MS/MS analysis. The samples were analyzed for amount of unconverted test compound and the amount of docetaxel formed in the test solution using LC-MS/MS operating in selected reaction monitoring (SRM) mode, as per follows: • Column: Hypurity Aquastar C-18, 50×2.1 mm, 3 micron • Mobile Phase: 10 mmol ammonium acetate-acetonitrile, 40:60 • Flow Rate: 250 μl/min • Oven Temperature: 45° C. • Retention time of compound I.04: 13.9 min • Retention time of docetaxel: 0.79 min
The parent ions>product ions monitored were the following: […]

[3] = cited from earlier work

CC(=O)O[C@@]12CO[C@@H]1C[C@H](OC(=O)CCC(=O)NN1CCCCC1)[C@@]1(C)C(=O)[C@H](O)C3=C(C)[C@@H](OC(=O)[C@H](OC(=O)CCC(=O)NN4CCCCC4)[C@@H](NC(=O)OC(C)(C)C)c4ccccc4)C[C@@](O)([C@@H](OC(=O)c4ccccc4)[C@H]21)C3(C)C [Compound I.03, 10-Deacetyl-N-debenzoyl-N-(tert-butyloxycarbonyl)-2′,7-bis[(N-piperidin-1-yl)succinamidoyl]taxol]
Solubility, visual clarity [1]: clear solution

CC(=O)O[C@@]12CO[C@@H]1C[C@H](O)[C@@]1(C)C(=O)[C@H](O)C3=C(C)[C@@H](OC(=O)[C@H](OC(=O)CCC(=O)NN4CCCCC4)[C@@H](NC(=O)OC(C)(C)C)c4ccccc4)C[C@@](O)([C@@H](OC(=O)c4ccccc4)[C@H]21)C3(C)C [Compound I.04, 10-Deacetyl-N-debenzoyl-N-(tert-butyloxycarbonyl)-2′-[(N-piperidin-1-yl)-succinamidoyl]taxol]
Peak Area of test compound ([2]; time 0 hrs): 24696932.5 counts | % Unconverted Compound I.04 ([2]; time 0.0 hrs): 100% | % Unconverted Compound I.04 ([2]; time 0.5 hrs): 59.1% | Peak Area of test compound ([2]; time 0.5 hrs): 19303514.4 counts | Peak Area of test compound ([2]; time 1 hrs): 16791382.3 counts | % Unconverted Compound I.04 ([2]; time 1.0 hrs): 40.3% | Peak Area of test compound ([2]; time 2 hrs): 11789443.5 counts | % Unconverted Compound I.04 ([2]; time 2.0 hrs): 4.7% | Peak Area of test compound ([2]; time 3 hrs): 6259891.0 counts | Peak Area of test compound ([2]; time 4 hrs): 3007853.1 counts | % Unconverted Compound I.04 ([2]; time 4.0 hrs): 0.1% | Peak Area of test compound ([2]; time 6 hrs): 904115.8 counts

CC(=O)O[C@@]12CO[C@@H]1C[C@H](O)[C@@]1(C)C(=O)[C@H](O)C3=C(C)[C@@H](OC(=O)[C@H](O)[C@@H](NC(=O)OC(C)(C)C)c4ccccc4)C[C@@](O)([C@@H](OC(=O)c4ccccc4)[C@H]21)C3(C)C [Docetaxel, docetaxel, reference compound]
Peak Area of docetaxel formed ([2]; time 0 hrs): 10447.0 counts | Peak Area of docetaxel formed ([2]; time 0.5 hrs): 70713.8 counts | Peak Area of docetaxel formed ([2]; time 1 hrs): 125083.0 counts | Peak Area of docetaxel formed ([2]; time 2 hrs): 243846.6 counts | Peak Area of docetaxel formed ([2]; time 3 hrs): 331134.0 counts | Peak Area of docetaxel formed ([2]; time 4 hrs): 464924.3 counts | Peak Area of docetaxel formed ([2]; time 6 hrs): 546298.2 counts | Solubility, visual clarity [1]: completely insoluble | Solubility in water [3]: < 50 µg/mL

CC(=O)O[C@H]1C(=O)[C@@]2(C)[C@H]([C@H](OC(=O)c3ccccc3)[C@]3(O)C[C@H](OC(=O)[C@H](O)[C@@H](NC(=O)c4ccccc4)c4ccccc4)C(C)=C1C3(C)C)[C@]1(OC(C)=O)CO[C@@H]1C[C@@H]2O [paclitaxel]
Solubility, visual clarity [1]: completely insoluble | Solubility in water (in words) [3]: poorly soluble in water
